Measured values reported in ChEMBL document CHEMBL1687846, “Ex vivo activity of histone deacetylase inhibitors against multidrug-resistant clinical isolates of Plasmodium falciparum and P. vivax” (Antimicrob Agents Chemother, 2011).

Tests used:
Plasmodium vivax [1] = assay: Antimalarial activity against trophozoites stage of Plasmodium vivax assessed as parasites growth inhibition using giemsa staining after 24 to 56 hrs by microscopic analysis in presence of 20% human serum; format: functional, organism-based
Plasmodium vivax [2] = assay: Antimalarial activity against Plasmodium vivax assessed as parasites growth inhibition using giemsa staining after 24 to 56 hrs by microscopic analysis in presence of 20% human serum; format: functional, organism-based
Plasmodium vivax [3] = assay: Antimalarial activity against ring stage of Plasmodium vivax assessed as parasites growth inhibition using giemsa staining after 24 to 56 hrs by microscopic analysis in presence of 20% human serum; format: functional, organism-based
Plasmodium falciparum [4] = assay: Antimalarial activity against Plasmodium falciparum assessed as parasites growth inhibition using giemsa staining after 24 to 56 hrs by microscopic analysis in presence of 10% human serum; format: functional, organism-based
Plasmodium falciparum [5] = assay: Antimalarial activity against trophozoites stage of Plasmodium falciparum assessed as parasites growth inhibition using giemsa staining after 24 to 56 hrs by microscopic analysis in presence of 10% human serum; format: functional, organism-based
Plasmodium falciparum [6] = assay: Antimalarial activity against ring stage of Plasmodium falciparum assessed as parasites growth inhibition using giemsa staining after 24 to 56 hrs by microscopic analysis in presence of 10% human serum; format: functional, organism-based
Plasmodium falciparum [7] = assay: Antimalarial activity against chloroquine-sensitive Plasmodium falciparum 3D7 assessed as inhibition of [3H]hypoxanthine incorporation; format: functional, organism-based
Plasmodium falciparum [8] = assay: microbe, parasite or virus in culture; details: K1, 3 h
Description: Antimalarial activity against chloroquine-resistant Plasmodium falciparum K1 assessed as inhibition of [3H]hypoxanthine incorporation

OC(c1cc(C(F)(F)F)nc2c(C(F)(F)F)cccc12)C1CCCCN1 (configuration not stated) [MEFLOQUINE]
IC50 (Plasmodium vivax [1]): 10.2 nM
IC50 (Plasmodium vivax [2]): 7.7 nM
IC50 (Plasmodium vivax [3]): 9.2 nM
IC50 (Plasmodium falciparum [4]): 6.3 nM

O=C(/C=C/c1ccccc1)N[C@@H](CCCCCC(=O)NO)C(=O)Nc1cccc2cccnc12
IC50 (Plasmodium vivax [1]): 438 nM
IC50 (Plasmodium vivax [2]): 503 nM
IC50 (Plasmodium falciparum [5]): 519 nM
IC50 (Plasmodium vivax [3]): 545 nM
IC50 (Plasmodium falciparum [6]): 492 nM
IC50 (Plasmodium falciparum [4]): 533 nM

O=C(CCCCC[C@H](NC(=O)c1cc2ccccc2[nH]1)C(=O)Nc1cccc2cccnc12)NO
IC50 (Plasmodium vivax [1]): 214 nM
IC50 (Plasmodium vivax [2]): 278 nM
IC50 (Plasmodium falciparum [5]): 467 nM
IC50 (Plasmodium vivax [3]): 327 nM
IC50 (Plasmodium falciparum [6]): 238 nM
IC50 (Plasmodium falciparum [4]): 266 nM

Clc1ccc2c(N3CCN(CCCN4CCN(c5ccnc6cc(Cl)ccc56)CC4)CC3)ccnc2c1 [PIPERAQUINE]
IC50 (Plasmodium vivax [1]): 15.9 nM
IC50 (Plasmodium vivax [2]): 13.2 nM
IC50 (Plasmodium falciparum [7]): 3 nM
IC50 (Plasmodium vivax [3]): 15.5 nM
IC50 (Plasmodium falciparum [4]): 10.8 nM
IC50 (Plasmodium falciparum [8]): 11 nM

CCN(CC)Cc1cc(Nc2ccnc3cc(Cl)ccc23)ccc1O
IC50 (Plasmodium vivax [1]): 21.1 nM
IC50 (Plasmodium vivax [2]): 9.1 nM
IC50 (Plasmodium falciparum [7]): 2 nM
IC50 (Plasmodium falciparum [5]): 9.6 nM
IC50 (Plasmodium falciparum [4]): 5 nM

CCN(CC)CCCC(C)Nc1ccnc2cc(Cl)ccc12 (configuration not stated) [CHLOROQUINE]
IC50 (Plasmodium vivax [1]): 841 nM
IC50 (Plasmodium vivax [2]): 40.4 nM

C[C@H]1[C@H](OC(=O)CCC(=O)O)O[C@@H]2O[C@@]3(C)CC[C@H]4[C@H](C)CC[C@@H]1[C@@]24OO3 [ARTESUNATE]
IC50 (Plasmodium vivax [1]): 0.39 nM
IC50 (Plasmodium vivax [2]): 0.74 nM
IC50 (Plasmodium falciparum [7]): 2 nM
IC50 (Plasmodium falciparum [5]): 1.19 nM
IC50 (Plasmodium vivax [3]): 0.75 nM
IC50 (Plasmodium falciparum [6]): 0.88 nM
IC50 (Plasmodium falciparum [4]): 0.92 nM
IC50 (Plasmodium falciparum [8]): 1 nM
